Tests used:
[1] = tested on: barnyardgrass; assay: Test B flood; format: in vivo, Echinochloa crus-galli; conditions: 250 g ai/ha, visual rating on 0 to 100 scale (0 no effect, 100 complete control), 13 to 15 days
Summary of the method: (§1)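 Two-leaf-stage plants, pots flooded (3 cm above soil) and treated through the water, which stayed at that depth. After 13–15 days in greenhouse conditions, visual assessment versus controls: 0 is no effect, 100 complete control, dash means no result.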

[2] = tested on: rice; assay: Test B flood; format: in vivo, Oryza sativa; conditions: 250 g ai/ha, visual rating on 0 to 100 scale (0 no effect, 100 complete control), 13 to 15 days
Summary of the method: as §1

[3] = tested on: oilseed rape; assay: Test C postemergence; format: in vivo, Brassica napus; conditions: for Plant response rating (scale of 0 to 100 where 0 is no effect and 100 is complete control), Oilseed Rape: Postemergence, 31 g ai/ha, visually evaluated after 13 to 15 days; for Oilseed Rape plant response rating / Plant response rating, Oilseed Rape: postemergence; for Oilseed Rape plant response rating: 62 g ai/ha, scale 0 to 100
Summary of the method: (§2)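 Scores of 0 (no effect) to 100 (complete control) were assigned by eye after 13–15 days, comparing treated pots with controls. Soil-applied (preemergence) treatments went onto seeds in loam and sand; foliar (postemergence) treatments onto 1- to 4-leaf plants in peat medium.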

[4] = tested on: johnsongrass; assay: Test C postemergence; format: in vivo, Sorghum halepense; conditions: for Plant response rating (scale of 0 to 100 where 0 is no effect and 100 is complete control), Johnsongrass: Postemergence, 31 g ai/ha, visually evaluated after 13 to 15 days; for Johnsongrass plant response rating / Plant response rating, Johnsongrass: postemergence; for Johnsongrass plant response rating: 62 g ai/ha, scale 0 to 100
Summary of the method: as §2

[5] = tested on: nutsedge, yellow; assay: Test C postemergence; format: in vivo, Cyperus esculentus; conditions: for Plant response rating (scale of 0 to 100 where 0 is no effect and 100 is complete control), Nutsedge, Yellow: Postemergence, 31 g ai/ha, visually evaluated after 13 to 15 days; for Nutsedge, Yellow plant response rating / Plant response rating, Nutsedge, Yellow: postemergence; for Nutsedge, Yellow plant response rating: 62 g ai/ha, scale 0 to 100
Summary of the method: as §2

[6] = tested on: oat, wild; assay: Test C postemergence; format: in vivo, Avena fatua; conditions: for Plant response rating (scale of 0 to 100 where 0 is no effect and 100 is complete control), Oat, Wild: Postemergence, 31 g ai/ha, visually evaluated after 13 to 15 days; for Oat, Wild plant response rating / Plant response rating, Oat, Wild: postemergence; for Oat, Wild plant response rating: 62 g ai/ha, scale 0 to 100
Summary of the method: as §2

[7] = tested on: pigweed; assay: Test C postemergence; format: in vivo, Amaranthus retroflexus; conditions: for Plant response rating (scale of 0 to 100 where 0 is no effect and 100 is complete control), Pigweed: Postemergence, 31 g ai/ha, visually evaluated after 13 to 15 days; for Pigweed plant response rating / Plant response rating, Pigweed: postemergence; for Pigweed plant response rating: 62 g ai/ha, scale 0 to 100
Summary of the method: as §2

[8] = tested on: foxtail, giant; assay: Test A preemergence; format: in vivo, Setaria faberii; conditions: preemergence
Summary of the method: (§3)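 Ratings express plant response from 0 (no effect) to 100 (complete control), judged visually against untreated controls after approximately 10 days in the greenhouse. Preemergence applications were made as directed soil sprays onto seeded loam–sand mix, and postemergence applications onto 2–10 cm plants at one- to two-leaf stage.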

[9] = tested on: ducksalad; assay: Test B flood; format: in vivo, Heteranthera limosa; conditions: 250 g ai/ha, visual rating on 0 to 100 scale (0 no effect, 100 complete control), 13 to 15 days
Summary of the method: as §1

[10] = tested on: waterhemp; assay: Test C preemergence; format: in vivo, Amaranthus rudis; conditions: for Plant response rating (scale of 0 to 100), Waterhemp: Preemergence; for Waterhemp plant response rating / Plant response rating, Waterhemp: preemergence; for Plant response rating, Waterhemp: scale 0 to 100, 0 = no effect, 100 = complete control
Summary of the method: as §2

[11] = tested on: velvetleaf; assay: Test C postemergence; format: in vivo, Abutilon theophrasti; conditions: for Plant response rating (scale of 0 to 100 where 0 is no effect and 100 is complete control), Velvetleaf: Postemergence, 31 g ai/ha, visually evaluated after 13 to 15 days; for Velvetleaf plant response rating / Plant response rating, Velvetleaf: postemergence; for Velvetleaf plant response rating: 62 g ai/ha, scale 0 to 100
Summary of the method: as §2

[12] = tested on: barnyardgrass; assay: Test A postemergence; format: in vivo, Echinochloa crus-galli
Summary of the method: as §3

[13] = tested on: kochia; assay: Test C postemergence; format: in vivo, Kochia scoparia; conditions: for Plant response rating (scale of 0 to 100 where 0 is no effect and 100 is complete control), Kochia: Postemergence, 31 g ai/ha, visually evaluated after 13 to 15 days; for Kochia plant response rating / Plant response rating, Kochia: postemergence; for Kochia plant response rating: 62 g ai/ha, scale 0 to 100
Summary of the method: as §2

[14] = tested on: lambsquarters; assay: Test C postemergence; format: in vivo, Chenopodium album; conditions: for Plant response rating (scale of 0 to 100 where 0 is no effect and 100 is complete control), Lambsquarters: Postemergence, 31 g ai/ha, visually evaluated after 13 to 15 days; for Lambsquarters plant response rating / Plant response rating, Lambsquarters: postemergence; for Lambsquarters plant response rating: 62 g ai/ha, scale 0 to 100
Summary of the method: as §2

[15] = 250 g ai/ha, scale 0 to 100 (0 no effect, 100 complete control)
[16] = 125 g ai/ha, scale 0 to 100, 0 no effect, 100 complete control
[17] = 125 g ai/ha, visual injury, 0 to 100 scale, approx. 10 days
[18] = 500 g ai/ha, visual injury after approx. 10 days, 0 to 100 scale (0 no effect, 100 complete control)
[19] = 31 g ai/ha, visual rating, scale 0 to 100 (0 no effect, 100 complete control), 13 to 15 days
[20] = 62 g ai/ha, scale 0 to 100 (0 no effect, 100 complete control), 13 to 15 days
[21] = Postemergence, 500 g ai/ha, 0 to 100 scale (0 no effect, 100 complete control)
[22] = postemergence, 125 g ai/ha, about 10 days, visual rating on 0 to 100 scale (0 no effect, 100 complete control)

CCNC(=O)c1cc(CC)n(Cc2ccnc(OC(F)F)c2)n1 [Compound 130]
Plant response rating, Barnyardgrass [1]: 40
Plant response rating, Rice [2]: 15
Plant response rating (scale of 0 to 100 where 0 is no effect and 100 is complete control), Oilseed Rape [3]: 35
Oilseed Rape plant response rating [3]: 40
Plant response rating, Oilseed Rape [3, 15]: 60
Plant response rating, Oilseed Rape [3, 16]: 55
Plant response rating (scale of 0 to 100 where 0 is no effect and 100 is complete control), Johnsongrass [4]: 0
Johnsongrass plant response rating [4]: 5
Plant response rating, Johnsongrass [4, 15]: 10
Plant response rating, Johnsongrass [4, 16]: 5
Plant response rating (scale of 0 to 100 where 0 is no effect and 100 is complete control), Nutsedge, Yellow [5]: 0
Nutsedge, Yellow plant response rating [5]: 5
Plant response rating, Nutsedge, Yellow [5, 15]: 10
Plant response rating, Nutsedge, Yellow [5, 16]: 5
Plant response rating (scale of 0 to 100 where 0 is no effect and 100 is complete control), Oat, Wild [6]: 5
Oat, Wild plant response rating [6]: 10
Plant response rating, Oat, Wild [6, 15]: 15
Plant response rating, Oat, Wild [6, 16]: 15
Plant response rating (scale of 0 to 100 where 0 is no effect and 100 is complete control), Pigweed [7]: 30
Pigweed plant response rating [7]: 65
Plant response rating, Pigweed [7, 15]: 85
Plant response rating, Pigweed [7, 16]: 50
Foxtail, Giant plant response rating [8, 17]: 100
Foxtail, Giant plant response rating [8, 18]: 100
Plant response rating, Ducksalad [9]: 90
Plant response rating (scale of 0 to 100), Waterhemp ([10]; 250 g ai/ha): 100
Waterhemp plant response rating [10, 19]: 100
Waterhemp plant response rating [10, 20]: 100
Plant response rating, Waterhemp ([10]; 125 g ai/ha, 13 to 15 days): 100
Plant response rating (scale of 0 to 100 where 0 is no effect and 100 is complete control), Velvetleaf [11]: 5
Velvetleaf plant response rating [11]: 10
Plant response rating, Velvetleaf [11, 15]: 60
Plant response rating, Velvetleaf [11, 16]: 50
Barnyardgrass plant response rating [12, 21]: 90
Barnyardgrass plant response rating [12, 22]: 70
Plant response rating (scale of 0 to 100 where 0 is no effect and 100 is complete control), Kochia [13]: 65
Kochia plant response rating [13]: 75
Plant response rating, Kochia [13, 15]: 90
Plant response rating, Kochia [13, 16]: 90
Plant response rating (scale of 0 to 100 where 0 is no effect and 100 is complete control), Lambsquarters [14]: 25
Lambsquarters plant response rating [14]: 30
Plant response rating, Lambsquarters [14, 15]: 75
Plant response rating, Lambsquarters [14, 16]: 65

CCNC(=O)c1cc(CC)n(Cc2ccnc(C(F)(F)F)c2)n1 [Compound 196]
Plant response rating, Barnyardgrass [1]: 30
Plant response rating, Rice [2]: 20
Oilseed Rape plant response rating [3]: 5
Plant response rating, Oilseed Rape [3, 15]: 70
Plant response rating, Oilseed Rape [3, 16]: 10
Plant response rating (scale of 0 to 100 where 0 is no effect and 100 is complete control), Johnsongrass [4]: 0
Johnsongrass plant response rating [4]: 5
Plant response rating, Johnsongrass [4, 15]: 15
Plant response rating, Johnsongrass [4, 16]: 10
Plant response rating (scale of 0 to 100 where 0 is no effect and 100 is complete control), Nutsedge, Yellow [5]: 5
Nutsedge, Yellow plant response rating [5]: 0
Plant response rating, Nutsedge, Yellow [5, 15]: 10
Plant response rating, Nutsedge, Yellow [5, 16]: 5
Plant response rating (scale of 0 to 100 where 0 is no effect and 100 is complete control), Oat, Wild [6]: 5
Oat, Wild plant response rating [6]: 5
Plant response rating, Oat, Wild [6, 15]: 15
Plant response rating, Oat, Wild [6, 16]: 10
Pigweed plant response rating [7]: 60
Plant response rating, Pigweed [7, 15]: 70
Plant response rating, Pigweed [7, 16]: 70
Foxtail, Giant plant response rating (0 to 100 scale) ([8]; 125 g ai/ha, visual injury approx. 10 days after treatment): 100
Foxtail, Giant plant response rating [8, 18]: 90
Plant response rating, Ducksalad [9]: 80
Waterhemp plant response rating [10, 19]: 100
Waterhemp plant response rating [10, 20]: 100
Plant response rating, Waterhemp ([10]; 125 g ai/ha, 13 to 15 days): 100
Waterhemp plant response rating ([10]; 250 g ai/ha, scale 0 to 100, 0 is no effect, 100 is complete control): 100
Plant response rating, Velvetleaf [11, 15]: 50
Barnyardgrass plant response rating [12, 21]: 90
Barnyardgrass plant response rating [12, 22]: 90
Plant response rating (scale of 0 to 100 where 0 is no effect and 100 is complete control), Kochia [13]: 80
Kochia plant response rating [13]: 85
Plant response rating, Kochia [13, 15]: 90
Plant response rating, Kochia [13, 16]: 90
Plant response rating (scale of 0 to 100 where 0 is no effect and 100 is complete control), Lambsquarters [14]: 60
Lambsquarters plant response rating [14]: 65
Plant response rating, Lambsquarters [14, 15]: 75
Plant response rating, Lambsquarters [14, 16]: 75

CCOc1cc(C(=O)NCC(F)(F)F)nn1Cc1ccnc(C(F)(F)F)c1 [Compound 104]
Plant response rating, Barnyardgrass [1]: 75
Plant response rating, Rice [2]: 40
Plant response rating (scale of 0 to 100 where 0 is no effect and 100 is complete control), Oilseed Rape [3]: 40
Oilseed Rape plant response rating [3]: 50
Plant response rating, Oilseed Rape [3, 15]: 85
Plant response rating, Oilseed Rape [3, 16]: 60
Plant response rating (scale of 0 to 100 where 0 is no effect and 100 is complete control), Johnsongrass [4]: 5
Johnsongrass plant response rating [4]: 15
Plant response rating, Johnsongrass [4, 15]: 85
Plant response rating, Johnsongrass [4, 16]: 40
Plant response rating (scale of 0 to 100 where 0 is no effect and 100 is complete control), Nutsedge, Yellow [5]: 5
Nutsedge, Yellow plant response rating [5]: 5
Plant response rating, Nutsedge, Yellow [5, 15]: 60
Plant response rating, Nutsedge, Yellow [5, 16]: 10
Plant response rating (scale of 0 to 100 where 0 is no effect and 100 is complete control), Oat, Wild [6]: 5
Oat, Wild plant response rating [6]: 15
Plant response rating, Oat, Wild [6, 15]: 85
Plant response rating, Oat, Wild [6, 16]: 35
Plant response rating (scale of 0 to 100 where 0 is no effect and 100 is complete control), Pigweed [7]: 50
Pigweed plant response rating [7]: 85
Plant response rating, Pigweed [7, 15]: 98
Plant response rating, Pigweed [7, 16]: 95
Foxtail, Giant plant response rating [8, 17]: 100
Foxtail, Giant plant response rating [8, 18]: 100
Plant response rating, Ducksalad [9]: 0
Plant response rating (scale of 0 to 100), Waterhemp ([10]; 250 g ai/ha): 100
Waterhemp plant response rating [10, 19]: 100
Plant response rating, Waterhemp ([10]; 62 g ai/ha, 13 to 15 days): 100
Waterhemp plant response rating ([10]; 125 g ai/ha, scale 0 to 100, 0 is no effect, 100 is complete control): 100
Plant response rating (scale of 0 to 100 where 0 is no effect and 100 is complete control), Velvetleaf [11]: 25
Velvetleaf plant response rating [11]: 40
Plant response rating, Velvetleaf [11, 15]: 80
Plant response rating, Velvetleaf [11, 16]: 65
Barnyardgrass plant response rating ([12]; Postemergence, 500 g ai/ha, visual rating after approx. 10 days, 0 to 100 scale (0 no effect, 100 complete control)): 90
Barnyardgrass plant response rating [12, 22]: 90
Plant response rating (scale of 0 to 100 where 0 is no effect and 100 is complete control), Kochia [13]: 85
Kochia plant response rating [13]: 90
Plant response rating, Kochia [13, 15]: 90
Plant response rating, Kochia [13, 16]: 90
Plant response rating (scale of 0 to 100 where 0 is no effect and 100 is complete control), Lambsquarters [14]: 80
Lambsquarters plant response rating [14]: 95
Plant response rating, Lambsquarters [14, 15]: 95
Plant response rating, Lambsquarters [14, 16]: 95
